ChEMBL document CHEMBL3632568, “Synthesis and biological evaluation of polyalthic acid derivatives for the treatment of neglected diseases” (Bioorg Med Chem Lett, 2015)
≈ marks a conversion by molar mass, not a printed value. Calls of active or inactive are those of the source. No cut-off for these calls is given here.

Legend:
Type in all cases: functional, organism-based
Leishmania donovani [1] = assay: Antileishmanial activity against axenic amastigote stage of Leishmania donovani assessed as growth inhibition after 72 hrs by Alamar Blue assay
Trypanosoma brucei = assay: Antitrypanosomal activity against trypamastigote stage of Trypanosoma brucei assessed as growth inhibition after 72 hrs by Alamar Blue assay
Leishmania donovani [2] = assay: Antileishmanial activity against promastigote stage of Leishmania donovani assessed as growth inhibition at 0.0128 to 40 ug/ml after 72 hrs by Alamar Blue assay

SMILES	IC50 (Leishmania donovani [1])	IC90 (Leishmania donovani [1])	IC50 (Trypanosoma brucei)	IC90 (Trypanosoma brucei)	inhibition (Leishmania donovani [2])
C=C1CC[C@H]2[C@@](C)(CCC[C@]2(C)C(=O)N2CCOCC2)[C@@H]1CCc1ccoc1	9.9 µg/mL (≈ 25.7 µM)	> 10 µg/mL	4.62 µg/mL (≈ 12 µM)	8.3 µg/mL (≈ 21.5 µM)	inactive
C=C1CC[C@H]2[C@@](C)(CCC[C@]2(C)C(=O)NCCOCCO)[C@@H]1CCc1ccoc1	> 10 µg/mL	> 10 µg/mL	> 10 µg/mL	> 10 µg/mL	inactive
C=C1CC[C@H]2[C@@](C)(CCC[C@]2(C)C(=O)NC2CCCCC2)[C@@H]1CCc1ccoc1	4.23 µg/mL (≈ 10.6 µM)	8.19 µg/mL (≈ 20.6 µM)	3.58 µg/mL (≈ 9 µM)	8.1 µg/mL (≈ 20.4 µM)	inactive
C=C1CC[C@H]2[C@@](C)(CCC[C@]2(C)C(=O)NCC2CCCCC2)[C@@H]1CCc1ccoc1	3.84 µg/mL (≈ 9.33 µM)	7.75 µg/mL (≈ 18.8 µM)	5.75 µg/mL (≈ 14 µM)	8.52 µg/mL (≈ 20.7 µM)	inactive
C[C@@H]1[C@H](O)[C@@H](C)/C=C/C=C/C=C/C=C/C=C/C=C/C=C/[C@H](O[C@@H]2O[C@H](C)[C@@H](O)[C@H](N)[C@@H]2O)C[C@@H]2O[C@](O)(C[C@@H](O)C[C@@H](O)[C@H](O)CC[C@@H](O)C[C@@H](O)CC(=O)O[C@H]1C)C[C@H](O)[C@H]2C(=O)O [AMPHOTERICIN B]	0.195 µg/mL (≈ 0.211 µM)	0.301 µg/mL (≈ 0.326 µM)	4.52 µg/mL (≈ 4.89 µM)	10.1 µg/mL (≈ 10.9 µM)	
C=C1CC[C@H]2[C@@](C)(CCC[C@]2(C)C(=O)NCCCC)[C@@H]1CCc1ccoc1	5.93 µg/mL (≈ 16 µM)	9.02 µg/mL (≈ 24.3 µM)	6.14 µg/mL (≈ 16.5 µM)	9.13 µg/mL (≈ 24.6 µM)	inactive
C[C@@]12CCC[C@](C)(C(=O)N3CCOCC3)[C@H]1CCC(O)(CO)[C@H]2CCc1ccoc1 (some centres not stated)	> 10 µg/mL	> 10 µg/mL	6.25 µg/mL (≈ 14.9 µM)	> 10 µg/mL	inactive
C=C1CC[C@H]2[C@@](C)(CCC[C@]2(C)C(=O)N(CC)CC)[C@@H]1CCc1ccoc1	5.12 µg/mL (≈ 13.8 µM)	8.75 µg/mL (≈ 23.5 µM)	5 µg/mL (≈ 13.5 µM)	8.82 µg/mL (≈ 23.7 µM)	inactive
C=C1CC[C@H]2[C@@](C)(CCC[C@]2(C)C(=O)NC(C)C)[C@@H]1CCc1ccoc1	7.04 µg/mL (≈ 19.7 µM)	> 10 µg/mL	2.74 µg/mL (≈ 7.66 µM)	4.9 µg/mL (≈ 13.7 µM)	inactive
C[C@@]12CCC[C@](C)(C(=O)NCC3CCCCC3)[C@H]1CCC(O)(CO)[C@H]2CCc1ccoc1 (some centres not stated)	> 10 µg/mL	> 10 µg/mL	6.51 µg/mL (≈ 14.6 µM)	9.15 µg/mL (≈ 20.5 µM)	inactive
C=C1CC[C@H]2[C@@](C)(CCC[C@]2(C)C(=O)NCCOC)[C@@H]1CCc1ccoc1	6.73 µg/mL (≈ 18 µM)	> 10 µg/mL	2.58 µg/mL (≈ 6.91 µM)	4.71 µg/mL (≈ 12.6 µM)	inactive
COCCNC(=O)[C@@]1(C)CCC[C@@]2(C)[C@H](CCc3ccoc3)C(O)(CO)CC[C@@H]21 (some centres not stated)	> 10 µg/mL	> 10 µg/mL	7.68 µg/mL (≈ 18.8 µM)	> 10 µg/mL	inactive
C=C1CC[C@H]2[C@@](C)(CCC[C@]2(C)C(=O)N2CCN(C)CC2)[C@@H]1CCc1ccoc1	> 10 µg/mL	> 10 µg/mL	6.85 µg/mL (≈ 17.2 µM)	> 10 µg/mL	inactive
N=C(N)c1ccc(OCCCCCOc2ccc(C(=N)N)cc2)cc1 [PENTAMIDINE]	1.89 µg/mL (≈ 5.54 µM)	5.81 µg/mL (≈ 17.1 µM)	0.002 µg/mL (≈ 0.00587 µM)	0.003 µg/mL (≈ 0.00881 µM)	
C=C1CC[C@H]2[C@@](C)(CCC[C@]2(C)C(=O)NC2CCOCC2)[C@@H]1CCc1ccoc1	> 10 µg/mL	> 10 µg/mL	9.88 µg/mL (≈ 24.7 µM)	> 10 µg/mL	inactive
C=C1CC[C@H]2[C@@](C)(CCC[C@]2(C)C(=O)O)[C@@H]1CCc1ccoc1	8.68 µg/mL (≈ 27.4 µM)	> 10 µg/mL	3.87 µg/mL (≈ 12.2 µM)	8.12 µg/mL (≈ 25.7 µM)	
C=C1CC[C@H]2[C@@](C)(CCC[C@]2(C)C(=O)NCCN(C)C)[C@@H]1CCc1ccoc1	> 10 µg/mL	> 10 µg/mL	> 10 µg/mL	> 10 µg/mL	inactive
C=C1CC[C@H]2[C@@](C)(CCC[C@]2(C)C(=O)NC2CC2)[C@@H]1CCc1ccoc1	8.21 µg/mL (≈ 23.1 µM)	> 10 µg/mL	5.62 µg/mL (≈ 15.8 µM)	8.96 µg/mL (≈ 25.2 µM)	inactive
